Molecules are shown by their SMILES.

One data set has as its system PK15NTD/ENT1 cells. The data set is described as follows: Cell viability, MTT assay. Type of data set: cell-based, porcine. To be noted: 50 µM, 24 or 48 h. As for the experimental part: (§1) PK15NTD/ENT1 and PK15NTD/ENT2 cells were seeded onto 96-well plates until they reached 80–90% confluent. The cells were then treated with different concentrations of compound 3c or an equivalent volume of a vehicle (0.5% dimethyl sulfoxide (DMSO), as a control) in a serum-free medium for another 24 or 48 h. For measuring cell membrane integrity, the lactate dehydrogenase (LDH) released into the culture medium was measured with a detection kit (Abcam, Cambridge, UK) according to the manufacturer’s instructions. The absorbance at 490 nm was measured with a microplate absorbance reader. For measuring cell viability, 0.5 mg/ml methylthiazolyldiphenyl-tetrazolium bromide (MTT) was added to each well. […] The absorbance was measured at 560 nm, with the absorbance at 655 nm serving as the background.
(§2) FIGURE 5 Effects of compound 3c on cytotoxicity and protein expressions of ENT1 and ENT2. Cytotoxicity of compound 3c was measured after 24 h or 48 h treatment of PK15NTD/ENT1 and PK15NTD/ENT2 cells with various concentrations of compound 3c (0.5, 5 and 50 μM) or a vehicle (0.5% DMSO, as a control) (A) The cell viability and (B) cell membrane integrity were determined by the MTT assay and LDH release, respectively (C) PK15NTD/ENT1 and (D) PK15NTD/ENT2 cells were incubated with 50 μM of compound 3c or a vehicle (0.5% DMSO, as a control) for 24 or 48 h. […]
(Tetrazolium assays rely on reduction of a dye to a coloured formazan, in cell work by metabolically active cells.)

Another data set has as its system PK15NTD/ENT2 cells. In words: Cell viability, MTT assay. Format: cell-based, porcine. To be noted: 50 µM, 24 or 48 h. The procedure: as §1, §2

Regarding `Cc1cccc(Nc2nc(N)nc(CN3CCN(c4ccc(F)cc4)CC3)n2)c1` [Compound 3c], the cell viability result with PK15NTD/ENT1 cells and in the data set with PK15NTD/ENT2 cells was “No significant changes” throughout.
